Laboratory results: article PMC6357218 (Molecular Therapy Oncolytics, 2018)

Molecular target: wild-type (WT) FKBP12 (in iRC9) (Homo sapiens, UniProt P62942)
Assay: Cross-activation of iRC9 apoptosis by high rimiducid in transfected HEK293 cells
Format: cell-based

Sequence of wild-type (WT) FKBP12 (in iRC9) (P62942 2-108): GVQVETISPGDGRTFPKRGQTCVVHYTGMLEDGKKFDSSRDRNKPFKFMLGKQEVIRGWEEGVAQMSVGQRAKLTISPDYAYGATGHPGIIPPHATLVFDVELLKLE

CC[C@H](C(=O)N1CCCC[C@H]1C(=O)O[C@H](CCc1ccc(OC)c(OC)c1)c1cccc(OCC(=O)NCCNC(=O)COc2cccc([C@@H](CCc3ccc(OC)c(OC)c3)OC(=O)[C@@H]3CCCCN3C(=O)[C@@H](CC)c3cc(OC)c(OC)c(OC)c3)c2)c1)c1cc(OC)c(OC)c(OC)c1 [Rim, rimiducid]
Cross-activation of iRC9 apoptosis by high rimiducid in transfected HEK293 cells: > 100 nM
